Data from patent publication US20070027150A1 (priority 2005, published 2007).

Molecular target: His-tagged N-terminal ATP binding domain (amino acid residues 9-236) of HSP90α (Homo sapiens, UniProt P07900)
Experiment: HSP90 inhibitor binding potency: TRF competition binding assay
Conditions: Table I; read-out: Hsp90 IC50 Range
Description: HSP90 Inhibitor Binding Potency: TRF Binding Assay
In this example, the binding potency of HSP90 inhibitors as measured by a TRF binding assay is described.
TRF competition binding assays were performed to determine the binding potency (IC50 values) of HSP90 inhibitors. Purified His-tagged N-terminal ATP binding domain (amino acid residues 9-236) of HSP90α (HSP90α GeneID: 3320; mRNA Sequence NM_005348) was incubated for two hours at room temperature in binding buffer (50 mM HEPES, 6 mM MgCl2, 20 mM KCl and 0.1% BSA) with biotinylated radicicol and progressively higher concentrations of the competing compounds. A fraction of the mixture was transferred to capture plates (coated with streptavidin) and incubated for one hour at room temperature. After washing with DELFIA wash buffer, europium-labeled anti-his antibody was added and incubated for two hours at room temperature, followed by washing with DELFIA buffer. DELFIA enhancement solution was then added. After gentle shaking for 10 minutes, the plates were read in VICTOR for europium counts.

Structure (SMILES)	IC50 [nM]
Cc1nc(N)nc2c1C(=O)CC(c1cccnc1-c1cnccn1)C2 (stereo not shown) [Compound 34, 2-amino-4-methyl-7-(2-pyrazin-2-ylpyridin-3-yl)-7,8-dihydroquinazolin-5(6H)-one]	1000 to 10000
Cc1nc(N)nc2c1C(=O)CC(c1ccccc1-c1nccs1)C2 (stereo not shown) [Compound 35, 2-amino-4-methyl-7-[2-(1,3-thiazol-2-yl)phenyl]-7,8-dihydroquinazolin-5(6H)-one]	< 1000
Cc1nc(N)nc2c1C(=O)CC(c1cccnc1-c1nccs1)C2 (stereo not shown) [Compound 36, 2-amino-4-methyl-7-[2-(1,3-thiazol-2-yl)pyridin-3-yl]-7,8-dihydroquinazolin-5(6H)-one]	1000 to 10000
Cc1nc(N)nc2c1C(=O)CC(c1ccccc1C#Cc1ccccc1)C2 (stereo not shown) [Compound 37, 2-amino-4-methyl-7-[2-(phenylethynyl)phenyl]-7,8-dihydroquinazolin-5(6H)-one]	> 10000
Cc1nc(N)nc2c1C(=O)CC(c1c(-c3ccccn3)cccc1-c1ccccn1)C2 (stereo not shown) [Compound 38, 2-amino-7-(2,6-dipyridin-2-ylphenyl)-4-methyl-7,8-dihydroquinazolin-5(6H)-one]	< 1000
Cc1nc(N)nc2c1C(=O)CC(c1ccccc1-c1cn[nH]c1)C2 (stereo not shown) [Compound 39, 2-amino-4-methyl-7-[2-(1H-pyrazol-4-yl)phenyl]-7,8-dihydroquinazolin-5(6H)-one]	1000 to 10000
Cc1nc(N)nc2c1C(=O)CC(c1ccccc1C1=CCCC1)C2 (stereo not shown) [Compound 40, 2-amino-7-(2-cyclopent-1-en-1-ylphenyl)-4-methyl-7,8-dihydroquinazolin-5(6H)-one]	< 1000
Cc1nc(N)nc2c1C(=O)CC(c1ccccc1-c1ccccc1)C2 (stereo not shown) [Compound 41, 2-amino-7-(1,1′-biphenyl-2-yl)-4-methyl-7,8-dihydroquinazolin-5(6H)-one]	< 1000
Cc1nc(N)nc2c1C(=O)CC(c1ccccc1-c1cncnc1)C2 (stereo not shown) [Compound 42, 2-amino-4-methyl-7-(2-pyrimidin-5-ylphenyl)-7,8-dihydroquinazolin-5(6H)-one]	< 1000
Cc1nc(N)nc2c1C(=O)CC(c1ccccc1-c1cnn(C)c1)C2 (stereo not shown) [Compound 43, 2-amino-4-methyl-7-[2-(1-methyl-1H-pyrazol-4-yl)phenyl]-7,8-dihydroquinazolin-5(6H)-one]	1000 to 10000
Cc1nc(N)nc2c1C(=O)CC(c1ccccc1C1=CCCCC1)C2 (stereo not shown) [Compound 44, 2-amino-7-(2-cyclohex-1-en-1-ylphenyl)-4-methyl-7,8-dihydroquinazolin-5(6H)-one]	< 1000
Cc1nc(N)nc2c1C(=O)CC(c1cccnc1C1=CCCCC1)C2 (stereo not shown) [Compound 45, 2-amino-7-(2-cyclohex-1-en-1-ylpyridin-3-yl)-4-methyl-7,8-dihydroquinazolin-5(6H)-one]	< 1000
Cc1nc(N)nc2c1C(=O)CC(c1ccccc1-c1ccsc1)C2 (stereo not shown) [Compound 46, 2-amino-4-methyl-7-(2-thien-3-ylphenyl)-7,8-dihydroquinazolin-5(6H)-one]	< 1000
Cc1nc(N)nc2c1C(=O)CC(c1nn(C)cc1C1CCCCC1)C2 (stereo not shown) [Compound 47, 2-amino-7-(4-cyclohexyl-1-methyl-1H-pyrazol-3-yl)-4-methyl-7,8-dihydro-6H-quinazolin-5-one]	< 1000
Cc1nc(N)nc2c1C(=O)CC(c1c(C3CCCCC3)cnn1C)C2 (stereo not shown) [Compound 48, 2-amino-7-(4-cyclohexyl-2-methyl-2H-pyrazol-3-yl)-4-methyl-7,8-dihydro-6H-quinazolin-5-one]	< 1000
Cc1ccccc1-c1ccccc1C1CC(=O)c2c(C)nc(N)nc2C1 (stereo not shown) [Compound 49, 2-amino-4-methyl-7-(2′-methyl-1,1′-biphenyl-2-yl)-7,8-dihydroquinazolin-5(6H)-one]	< 1000
Cc1cccc(-c2ccccc2C2CC(=O)c3c(C)nc(N)nc3C2)c1 (stereo not shown) [Compound 50, 2-amino-4-methyl-7-(3′-methyl-1,1′-biphenyl-2-yl)-7,8-dihydroquinazolin-5(6H)-one]	1000 to 10000
Cc1nc(N)nc2c1C(=O)CC(c1ccccc1-c1ccccc1F)C2 (stereo not shown) [Compound 51, 2-amino-7-(2′-fluoro-1,1′-biphenyl-2-yl)-4-methyl-7,8-dihydroquinazolin-5(6H)-one]	< 1000
Cc1nc(N)nc2c1C(=O)CC(c1ccccc1-c1cccc(F)c1)C2 (stereo not shown) [Compound 52, 2-amino-7-(3′-fluoro-1,1′-biphenyl-2-yl)-4-methyl-7,8-dihydroquinazolin-5(6H)-one]	< 1000
Cc1nc(N)nc2c1C(=O)CC(c1ccccc1-c1ccc(F)cc1)C2 (stereo not shown) [Compound 53, 2-amino-7-(4′-fluoro-1,1′-biphenyl-2-yl)-4-methyl-7,8-dihydroquinazolin-5(6H)-one]	< 1000

Now from value to compound:

IC50 [nM]	Structure (SMILES)
> 10000	Cc1nc(N)nc2c1C(=O)CC(c1cccc(-c3cccnc3F)c1)C2 (stereo not shown) [Compound 54]
< 1000	Cc1nc(N)nc2c1C(=O)CC(c1ccccc1-c1cccnc1F)C2 (stereo not shown) [Compound 55, 2-amino-7-[2-(2-fluoropyridin-3-yl)phenyl]-4-methyl-7,8-dihydroquinazolin-5(6H)-one]
< 1000	Cc1nc(N)nc2c1C(=O)CC(c1ccccc1-c1ccc(F)nc1)C2 (stereo not shown) [Compound 56, 2-amino-7-[2-(6-fluoropyridin-3-yl)phenyl]-4-methyl-7,8-dihydroquinazolin-5(6H)-one]
< 1000	Cc1nc(N)nc2c1C(=O)CC(c1cccnc1-c1ccccc1F)C2 (stereo not shown) [Compound 57, 2-amino-7-[2-(2-fluorophenyl)pyridin-3-yl]-4-methyl-7,8-dihydroquinazolin-5(6H)-one]
> 10000	Cc1nc(N)nc2c1C(=O)CC(c1cccc(-c3ccccc3F)c1)C2 (stereo not shown) [Compound 58]
1000 to 10000	Cc1nc(N)nc2c1C(=O)CC(c1ccccc1-c1c(C)noc1C)C2 (stereo not shown) [Compound 59, 2-amino-7-[2-(3,5-dimethylisoxazol-4-yl)phenyl]-4-methyl-7,8-dihydroquinazolin-5(6H)-one]
< 1000	Cc1nc(N)nc2c1C(=O)CC(c1ccc(F)cc1-c1cncnc1)C2 (stereo not shown) [Compound 60, 2-amino-7-(4-fluoro-2-pyrimidin-5-yl-phenyl)-4-methyl-7,8-dihydro-6H-quinazolin-5-one]
< 1000	Cc1nc(N)nc2c1C(=O)CC(c1cnccc1-c1cccnc1F)C2 (stereo not shown) [Compound 61, 2-amino-7-(2-fluoro-[3,4′]bipyridinyl-3′-yl)-4-methyl-7,8-dihydro-6H-quinazolin-5-one]
< 1000	Cc1nc(N)nc2c1C(=O)CC(c1c(O)cccc1C1=CCCCC1)C2 (stereo not shown) [Compound 62, 2-amino-7-(2-cyclohex-1-enyl-6-hydroxy-phenyl)-4-methyl-7,8-dihydro-6H-quinazolin-5-one]
< 1000	Cc1nc(N)nc2c1C(=O)CC(c1nn(C)cc1-c1cccnc1F)C2 (stereo not shown) [Compound 63, 2-amino-7-[4-(2-fluoro-pyridin-3-yl)-1-methyl-1H-pyrazol-3-yl]-4-methyl-7,8-dihydro-6H-quinazolin-5-one]
1000 to 10000	Cc1nc(N)nc2c1C(=O)CC(c1c(-c3cccnc3F)cnn1C)C2 (stereo not shown) [Compound 64, 2-amino-7-[4-(2-fluoro-pyridin-3-yl)-2-methyl-2H-pyrazol-3-yl]-4-methyl-7,8-dihydro-6H-quinazolin-5-one]
1000 to 10000	Cc1nc(N)nc2c1C(=O)CC(c1ccccc1-c1cccc(C#N)c1)C2 (stereo not shown) [Compound 65, 2′-(2-amino-4-methyl-5-oxo-5,6,7,8-tetrahydroquinazolin-7-yl)-1,1′-biphenyl-3-carbonitrile]
1000 to 10000	Cc1ccc(-c2ccccc2C2CC(=O)c3c(C)nc(N)nc3C2)c(C)n1 (stereo not shown) [Compound 66, 2-amino-7-[2-(2,6-dimethylpyridin-3-yl)phenyl]-4-methyl-7,8-dihydroquinazolin-5(6H)-one]
< 1000	Cc1nc(N)nc2c1C(=O)CC(c1ccccc1-c1ccccc1CO)C2 (stereo not shown) [Compound 67, 2-amino-7-[2′-(hydroxymethyl)-1,1′-biphenyl-2-yl]-4-methyl-7,8-dihydroquinazolin-5(6H)-one]
< 1000	Cc1nc(N)nc2c1C(=O)CC(c1ccccc1-c1ccccc1CO)C2 (stereo not shown) [Compound 68, 2-amino-7-[2′-(hydroxymethyl)-1,1′-biphenyl-2-yl]-4-methyl-7,8-dihydroquinazolin-5(6H)-one]
1000 to 10000	COc1cccc(-c2ccccc2C2CC(=O)c3c(C)nc(N)nc3C2)c1 (stereo not shown) [Compound 69, 2-amino-7-(3′-methoxy-1,1′-biphenyl-2-yl)-4-methyl-7,8-dihydroquinazolin-5(6H)-one]
< 1000	COc1ncccc1-c1ccccc1C1CC(=O)c2c(C)nc(N)nc2C1 (stereo not shown) [Compound 70, 2-amino-7-[2-(2-methoxypyridin-3-yl)phenyl]-4-methyl-7,8-dihydroquinazolin-5(6H)-one]
< 1000	COc1ccc(-c2cccnc2)c(C2CC(=O)c3c(C)nc(N)nc3C2)c1 (stereo not shown) [Compound 71, 2-amino-7-(5-methoxy-2-pyridin-3-ylphenyl)-4-methyl-7,8-dihydroquinazolin-5(6H)-one]
1000 to 10000	COc1ccncc1-c1ccccc1C1CC(=O)c2c(C)nc(N)nc2C1 (stereo not shown) [Compound 72, 2-amino-7-[2-(4-methoxypyridin-3-yl)phenyl]-4-methyl-7,8-dihydroquinazolin-5(6H)-one]
1000 to 10000	COc1cncc(-c2ccccc2C2CC(=O)c3c(C)nc(N)nc3C2)c1 (stereo not shown) [Compound 73, 2-amino-7-[2-(5-methoxypyridin-3-yl)phenyl]-4-methyl-7,8-dihydroquinazolin-5(6H)-one]
